pIC50: −log10 of the molar value.
Tests used:
advanced cancer [1] = experiment: Clinical benefit across all completed studies of taladegib in advanced cancer (total); format: in vivo, human
From the text: (§1) Approximately 192 study participants have received at least one dose of taladegib in sponsor-initiated and -controlled trials for the treatment of advanced cancers. The clinical trials were: • q. HHBB: Phase 1 dose-escalation study to evaluate the safety and tolerability of taladegib in patients with advanced cancer. • r. HHBE: Phase Ib/2 double-blind randomized study of the Human smoothened (hSmo) antagonist taladegib in combination with carboplatin and etoposide followed by taladegib versus carboplatin and etoposide plus placebo followed by placebo in patients with extensive stage small cell lung cancer (SCLC). • s. HHBH: Phase 1 study of taladegib in Japanese patients with advanced solid tumors. • t. HIPROC: An investigator-initiated Phase 1a/1b dose-escalation study of taladegib in combination with weekly intravenous paclitaxel in patients with advanced solid cancers. • u. HHBF: A Phase 1 ^14C metabolism study of 100 mg of taladegib in healthy subjects. • v. HHBG: A Phase 1 single ascending dose study of taladegib in healthy subjects.
(§2) Participants include approximately 156 advanced cancer patients from studies HHBB (N=95), HHBE (N=26), HHBH (N=19), HIPROC (N=16) and 36 healthy volunteers from studies HHBG (N=30) and HHBF (N=6).
(§3) The primary tumor type enrolled was BCC. Additionally, responses in medulloblastoma (monotherapy), SCLC (in combination with carboplatin and etoposide) and ovarian cancer (in combination with paclitaxel) were also observed.

advanced cancer [2] = experiment: HHBB addendum; format: in vivo, human; details: N=11, RECIST v1.1
From the text: as §3

advanced solid cancers = experiment: HIPROC: Phase 1a/1b dose-escalation study of taladegib with weekly intravenous paclitaxel; format: in vivo, human; details: in combination with weekly intravenous paclitaxel, N=16, RECIST v1.1
From the text: as §1, §2, §3

advanced cancer [3] = experiment: HHBB: Phase 1 dose-escalation study of taladegib in patients with advanced cancer; format: in vivo, human; details: N=84, monotherapy, RECIST v1.1
From the text: as §1, §2, §3

Gli1 activity = details: Daoy cells; as described in U.S. Pat. No. 9,000,023; read-out: IC50, inhibition of Gli1 activity; cited from earlier work
[4] = tested on: extensive stage small cell lung cancer (SCLC); experiment: HHBE: Phase Ib/2 study of taladegib with carboplatin and etoposide in extensive stage SCLC; format: in vivo, human; details: in combination with carboplatin and etoposide, N=26, RECIST v1.1
From the text: as §1, §2, §3

[5] = Safety in clinical trials of taladegib (healthy volunteers and advanced cancer patients); format: in vivo, human
From the text: as §1, §2
As expected, AEs associated with chemotherapy were also observed when taladegib was used in combination with anti-neoplastic agents.

advanced solid tumors = experiment: HHBH: Phase 1 study of taladegib in Japanese patients with advanced solid tumors; format: in vivo, human; details: N=19, RECIST v1.1
From the text: as §1, §2, §3

[6] = background statement on Hh pathway inhibitors; cited from earlier work
[7] = Total of all completed studies, N=156

SMILES: CN(C(=O)c1ccc(F)cc1C(F)(F)F)C1CCN(c2nnc(-c3ccnn3C)c3ccccc23)CC1 [Taladegib, 4-Fluoro-N-methyl-N-(1-(4-(1-methyl-1H-pyrazol-5-yl)phthalazin-1-yl)piperidin-4-yl)-2-(trifluoromethyl)benzamide]
- CR (complete response), number of patients (advanced cancer [1]; [7]): 6
- CR (complete response), percent of patients (advanced cancer [1]; [7]): 4%
- Clinical Benefit, number of patients (advanced cancer [1]; [7]): 94
- Clinical Benefit, percent of patients (advanced cancer [1]; [7]): 60%
- PR (partial response), number of patients (advanced cancer [1]; [7]): 42
- PR (partial response), percent of patients (advanced cancer [1]; [7]): 27%
- Clinical (RECIST v1.1) responses by dose (advanced cancer [1]; across all four multiple-dose studies in patients): responses were observed at all doses
- Responses in SCLC (advanced cancer [1]; in combination with carboplatin and etoposide): observed
- Responses in ovarian cancer (advanced cancer [1]; in combination with paclitaxel): observed
- Responses in medulloblastoma (advanced cancer [1]; monotherapy): observed
- CR (complete response), number of patients (advanced cancer [2]): 1
- CR (complete response), percent of patients (advanced cancer [2]): 9%
- Clinical Benefit, number of patients (advanced cancer [2]): 4
- Clinical Benefit, percent of patients (advanced cancer [2]): 36%
- PR (partial response), number of patients (advanced cancer [2]): 0
- CR (complete response), number of patients (advanced solid cancers): 0 (0%)
- CR (complete response), percent of patients (advanced solid cancers): 0 (0%)
- Clinical Benefit, number of patients (advanced solid cancers): 10
- Clinical Benefit, percent of patients (advanced solid cancers): 62%
- PR (partial response), number of patients (advanced solid cancers): 4
- PR (partial response), percent of patients (advanced solid cancers): 25%
- CR (complete response), number of patients (advanced cancer [3]): 5
- CR (complete response), percent of patients (advanced cancer [3]): 6%
- Clinical Benefit, number of patients (advanced cancer [3]): 48
- Clinical Benefit, percent of patients (advanced cancer [3]): 57%
- PR (partial response), number of patients (advanced cancer [3]): 17
- PR (partial response), percent of patients (advanced cancer [3]): 20%
- pIC50 (Gli1 activity): ~8.62
- CR (complete response), number of patients [4]: 0 (0%)
- CR (complete response), percent of patients [4]: 0 (0%)
- Clinical Benefit, number of patients [4]: 21
- Clinical Benefit, percent of patients [4]: 81%
- PR (partial response), number of patients [4]: 14
- PR (partial response), percent of patients [4]: 54%
- Safety profile ([5]; advanced cancer patients, monotherapy and combination with anti-neoplastic agents): manageable safety profile
- Most commonly observed AEs ([5]; as a monotherapy): nausea, diarrhea, dysgeusia, fatigue, decreased appetite, alopecia, vomiting, muscle spasm, constipation, weight decrease, and headache
- Important potential risks associated with treatment ([5]; on the basis of preclinical and clinical data and information for molecules in the same therapeutic class): hepatic injury, embryotoxicity and teratogenicity, and rhabdomyolysis
- CR (complete response), number of patients (advanced solid tumors): 0 (0%)
- CR (complete response), percent of patients (advanced solid tumors): 0 (0%)
- Clinical Benefit, number of patients (advanced solid tumors): 5
- Clinical Benefit, percent of patients (advanced solid tumors): 26%
- PR (partial response), number of patients (advanced solid tumors): 1
- PR (partial response), percent of patients (advanced solid tumors): 5%

SMILES: CS(=O)(=O)c1ccc(C(=O)Nc2ccc(Cl)c(-c3ccccn3)c2)c(Cl)c1 [vismodegib]
- Toxicity [6]: unacceptable toxicity

SMILES: CC1=C2C[C@H]3[C@@H](CC[C@@H]4C[C@H](NS(C)(=O)=O)CC[C@@]43C)[C@@H]2CC[C@@]2(C1)O[C@@H]1C[C@H](C)CN[C@H]1[C@H]2C [saridegib]
- Toxicity [6]: unacceptable toxicity

From patent publication US20230181584A1, “METHOD OF TREATING CANCER HAVING AN ACTIVATED HEDGEHOG PATHWAY” (Endeavor Biomedicines, Inc., priority 2021, published 2023)
